In PubChem BioAssay AID2060614 (Molecular Pharmacology Branch, DTP, NCI, 2025):

Test system: 598228-144-R-J1-PDC complex spheroids, viability
Test: Anticancer human tumor 598228-144-R-J1-PDC patient-derived serous endometrial adenocarcinoma cell line growth inhibition [CLK]
Settings: for IC50: curve of first compound; for viability, T/C: stronger effect = lower value
From the text: A high-throughput screen of multi-cell type tumor spheroids was designed to identify active combinations of […] and targeted small molecules. Complex spheroids include a stromal component modeled by human endothelial cells (HUVEC) and fibroblasts modeled by human mesenchymal stem cells (MSCs). The concentration ranges selected for each drug and investigational agent were based upon clinically achievable concentrations if the clinical Cmax of the agent was known.
Compounds. The drugs and investigational agents: cirtuvivint (SM08502; NSC835563), CC-671 (NSC850746), vemurafenib (NSC761431), tapotoclax (NSC804041), sotorasib (NSC818433), adagrasib (NSC831453), MRTX-1133 (NSC836407), BAY2416964 (NSC825713), copanlisib (NSC816437), inavolisib (NSC800729), abemaciclib (NSC768073), osimertinib (NSC779217), entinostat (NSC756642), eltanexor (KPT-8602, NSC794443), venetoclax (NSC766270), ceralasertib (NSC777638), bortezomib (NSC756655), olaparib (NSC753686), talazoparib (NSC767125), alisertib (NSC759677), peposertib (NSC802822), gemcitabine (NSC613327), 5-fluorouracil (NSC19893), SN-38 (NSC673596), oxaliplatin (NSC266046), paclitaxel (NSC125973), and doxorubicin (NSC123127), were obtained from the National Cancer Institute (NCI) Developmental Therapeutics Program Chemical Repository. The FDA-approved anticancer drug set is available from the Developmental Therapeutics Program at https://dtp.cancer.gov/organization/dscb/obtaining/available plates.htm. […] The stock solutions were prepared in dimethyl sulfoxide (DMSO, Sigma-Aldrich, St. Louis, MO, cat. D2650), except for the platinum complexes which were prepared in saline (Quality Biological, Gaithersburg, MD, cat. 114-055-101), at 800-fold the tested concentration and stored at -70 degrees C prior to their use. All drugs and investigational agents were tested over a range starting from a high concentration at or near the clinical Cmax and decreasing in half-log increments. If the clinical Cmax for an agent had not been determined, the highest concentration tested was 10 microM.
Cell Culture. All cells were maintained in an incubator at 37 degrees C and 5% CO2 with 95% humidity. The PDC lines were cultured according to standard operating procedures established by the NCI PDMR. Briefly, all PDCs were thawed and cultured in Matrigel-coated flasks prepared with a working solution of 1X Ham's F-12 nutrient mix, without supplementation (Invitrogen, Waltham, MA, cat. 11765054), 100 U/mL penicillin-streptomycin (Invitrogen, cat. 15140122), and 2.5% Matrigel (Corning Inc., Corning, NY, cat. 354248) for the first three passages. The 947758-054-R-J2-PDC line was cultured in 6B/Colon 1A media, which includes advanced DMEM/F-12 (Thermo Fisher Scientific, cat. 12634028), 10 mM HEPES (Thermo Fisher Scientific, cat. 15630080), 1X GlutaMAX supplement (Thermo Fisher Scientific, cat. 35050061), 0.1 mg/mL primocin (InvivoGen, cat. ant-pm-2), 10% defined fetal bovine serum, heat inactivated (HyClone Laboratories Inc., cat. SH30070.03HI), 1.25 mM N-Acetyl-L-cysteine (Sigma-Aldrich, cat. A9165), 10 mM nicotinamide (Sigma-Aldrich, cat. N0636), 1X B-27 supplement (Thermo Fisher Scientific, cat. 17504044), 1X N-2 supplement (Thermo Fisher Scientific, cat. 17502048), and 10 microM Y-27632 dihydrochloride (Tocris Bioscience, cat. 1254). The 876862-298-R-J1-PDC was cultured in 6E media, which includes all 6B/Colon 1A media components plus 50% L-WRN conditioned media (ATCC, cat. CRL-3276), 50 ng/mL recombinant human EGF recombinant protein (hEGF; Thermo Fisher Scientific, cat. PHG0311), 10 ng/mL recombinant human fibroblast growth factor 10 (hGFG-10; PeproTech, cat. 100-26), 1 ng/mL recombinant human fibroblast growth factor 2 (hFGF-2; PeproTech, cat. 100-18B), and 1 µM prostaglandin E2 (PGE2; Tocris, cat. 2296). The 227483-062-R1-J1-PDC line was cultured in Panc media, containing all 6E components except hFGF-2, with the addition of 500 nM SB-431542 (Selleckchem, cat. S1067) and 10 nM gastrin (Tocris, cat. 3006). […]

[1] = second compound 0.0316 µM, first compound 0.00316 µM
[2] = second compound 0.0316 µM, first compound 0.01 µM
[3] = second compound 0.0316 µM, first compound 0.0316 µM
[4] = second compound 0.0316 µM, first compound 0.1 µM
[5] = second compound 0.0316 µM, first compound 0.316 µM
[6] = second compound 0.0316 µM, first compound 1 µM
[7] = second compound 0.1 µM, first compound 0.00316 µM
[8] = second compound 0.1 µM, first compound 0.01 µM
[9] = second compound 0.1 µM, first compound 0.0316 µM
[10] = second compound 0.1 µM, first compound 0.1 µM
[11] = second compound 0.1 µM, first compound 0.316 µM
[12] = second compound 0.1 µM, first compound 1 µM
[13] = second compound 0.316 µM, first compound 0.00316 µM
[14] = second compound 0.316 µM, first compound 0.01 µM
[15] = second compound 0.316 µM, first compound 0.0316 µM
[16] = second compound 0.316 µM, first compound 0.1 µM
[17] = second compound 0.316 µM, first compound 0.316 µM
[18] = second compound 0.316 µM, first compound 1 µM
[19] = second compound 1 µM, first compound 0.00316 µM
[20] = second compound 1 µM, first compound 0.01 µM
[21] = second compound 1 µM, first compound 0.0316 µM
[22] = second compound 1 µM, first compound 0.1 µM
[23] = second compound 1 µM, first compound 0.316 µM
[24] = second compound 1 µM, first compound 1 µM
[25] = second compound 3.16 µM, first compound 0.00316 µM
[26] = second compound 3.16 µM, first compound 0.01 µM
[27] = second compound 3.16 µM, first compound 0.0316 µM
[28] = second compound 3.16 µM, first compound 0.1 µM
[29] = second compound 3.16 µM, first compound 0.316 µM
[30] = second compound 3.16 µM, first compound 1 µM
[31] = second compound 10 µM, first compound 0.00316 µM
[32] = second compound 10 µM, first compound 0.01 µM
[33] = second compound 10 µM, first compound 0.0316 µM
[34] = second compound 10 µM, first compound 0.1 µM
[35] = second compound 10 µM, first compound 0.316 µM
[36] = second compound 10 µM, first compound 1 µM
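Also: spheroids exposed to compounds for seven days before readout.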
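For viability, T/C in this document: 100% = DMSO vehicle control wells.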

COc1c(OCCCN2CCOCC2)ccc2c3n(c(=NC(=O)c4cnc(N)nc4)nc12)CCN3 + CN1CCN(c2cc(C(=O)Nc3cc4cc(-c5cnn(C)c5)ccc4cn3)ccn2)CC1
IC50 (second compound 0.0316 µM): 30.9 nM
IC50 (second compound 0.1 µM): 19.5 nM
IC50 (second compound 0.316 µM): < 3.16 nM
IC50 (second compound 1 µM): < 3.16 nM
IC50 (second compound 3.16 µM): < 3.16 nM
IC50 (second compound 10 µM): < 3.16 nM
viability, T/C [1]: 98.2%
viability, T/C [2]: 75.7%
viability, T/C [3]: 46.8%
viability, T/C [4]: 31.9%
viability, T/C [5]: 15.7%
viability, T/C [6]: 8.56%
viability, T/C [7]: 85.5%
viability, T/C [8]: 66.5%
viability, T/C [9]: 36.7%
viability, T/C [10]: 23.5%
viability, T/C [11]: 9.69%
viability, T/C [12]: 10.4%
viability, T/C [13]: 10.5%
viability, T/C [14]: 8.73%
viability, T/C [15]: 5.42%
viability, T/C [16]: 2.85%
viability, T/C [17]: 2.66%
viability, T/C [18]: 2.22%
viability, T/C [19]: 1.16%
viability, T/C [20]: 0.94%
viability, T/C [21]: 0.73%
viability, T/C [22]: 0.29%
viability, T/C [23]: 1.53%
viability, T/C [24]: 3.1%
viability, T/C [25]: 0.95%
viability, T/C [26]: 2.7%
viability, T/C [27]: 0.9%
viability, T/C [28]: 0.57%
viability, T/C [29]: 1.8%
viability, T/C [30]: 4.26%
viability, T/C [31]: 0.66%
viability, T/C [32]: 2.16%
viability, T/C [33]: 2.49%
viability, T/C [34]: 0.4%
viability, T/C [35]: 0.59%
viability, T/C [36]: 3.39%

Nc1ccccc1NC(=O)c1ccc(CNC(=O)OCc2cccnc2)cc1 + CN1CCN(c2cc(C(=O)Nc3cc4cc(-c5cnn(C)c5)ccc4cn3)ccn2)CC1
IC50 (second compound 0.0316 µM): 1780 nM
IC50 (second compound 0.1 µM): 2170 nM
IC50 (second compound 0.316 µM): < 31.6 nM
IC50 (second compound 1 µM): < 31.6 nM
IC50 (second compound 3.16 µM): < 31.6 nM
IC50 (second compound 10 µM): < 31.6 nM
viability, T/C [3]: 125%
viability, T/C [4]: 114%
viability, T/C [5]: 93.4%
viability, T/C [6]: 68.2%
viability, T/C (second compound 0.0316 µM, first compound 3.16 µM): 32.4%
viability, T/C (second compound 0.0316 µM, first compound 10 µM): 3.45%
viability, T/C [9]: 121%
viability, T/C [10]: 123%
viability, T/C [11]: 97.2%
viability, T/C [12]: 71.3%
viability, T/C (second compound 0.1 µM, first compound 3.16 µM): 41%
viability, T/C (second compound 0.1 µM, first compound 10 µM): 0.32%
viability, T/C [15]: 17.1%
viability, T/C [16]: 14.1%
viability, T/C [17]: 13%
viability, T/C [18]: 10.7%
viability, T/C (second compound 0.316 µM, first compound 3.16 µM): 1.75%
viability, T/C (second compound 0.316 µM, first compound 10 µM): 0.23%
viability, T/C [21]: 1.29%
viability, T/C [22]: 1.3%
viability, T/C [23]: 1.11%
viability, T/C [24]: 1.01%
viability, T/C (second compound 1 µM, first compound 3.16 µM): 1.46%
viability, T/C (second compound 1 µM, first compound 10 µM): 0.57%
viability, T/C [27]: 1.49%
viability, T/C [28]: 3.39%
viability, T/C [29]: 1.88%
viability, T/C [30]: 1.93%
viability, T/C (second compound 3.16 µM, first compound 3.16 µM): 1.66%
viability, T/C (second compound 3.16 µM, first compound 10 µM): 0.89%
viability, T/C [33]: 0.8%
viability, T/C [34]: 0.77%
viability, T/C [35]: 1.17%
viability, T/C [36]: 1.13%
viability, T/C (second compound 10 µM, first compound 3.16 µM): 2.8%
viability, T/C (second compound 10 µM, first compound 10 µM): 2.51%

COc1c(OCCCN2CCOCC2)ccc2c3n(c(=NC(=O)c4cnc(N)nc4)nc12)CCN3 + CNC(=O)c1ccc(Nc2nc(OC3CCCC3)c3c(-c4ccc5nc(C)oc5c4)c[nH]c3n2)c(OC)c1
IC50 (second compound 0.0316 µM): 26.1 nM
IC50 (second compound 0.1 µM): 30.2 nM
IC50 (second compound 0.316 µM): 18.4 nM
IC50 (second compound 1 µM): 15.2 nM
IC50 (second compound 3.16 µM): 10.6 nM
IC50 (second compound 10 µM): 9.94 nM
viability, T/C [1]: 85.7%
viability, T/C [2]: 65.5%
viability, T/C [3]: 49%
viability, T/C [4]: 26.5%
viability, T/C [5]: 15.7%
viability, T/C [6]: 9.14%
viability, T/C [7]: 104%
viability, T/C [8]: 74.2%
viability, T/C [9]: 51.4%
viability, T/C [10]: 25.8%
viability, T/C [11]: 13.6%
viability, T/C [12]: 5.09%
viability, T/C [13]: 97.8%
viability, T/C [14]: 65.4%
viability, T/C [15]: 35.7%
viability, T/C [16]: 19.6%
viability, T/C [17]: 11.3%
viability, T/C [18]: 5.13%
viability, T/C [19]: 86.8%
viability, T/C [20]: 61.4%
viability, T/C [21]: 29.9%
viability, T/C [22]: 16.6%
viability, T/C [23]: 8.67%
viability, T/C [24]: 5.42%
viability, T/C [25]: 73.5%
viability, T/C [26]: 51.5%
viability, T/C [27]: 28.4%
viability, T/C [28]: 13.9%
viability, T/C [29]: 7.8%
viability, T/C [30]: 3.58%
viability, T/C [31]: 71.2%
viability, T/C [32]: 50.3%
viability, T/C [33]: 24.8%
viability, T/C [34]: 12.9%
viability, T/C [35]: 6.23%
viability, T/C [36]: 5.18%
